Reference: US6413948B1, “Pharmaceutical compositions and methods of effecting a neuronal activity in an animal using naaladase inhibitors” (Guilford Pharmaceuticals Inc., priority 1996, dated 2002)

Tests used:
[1] = system: spinal cord organotypic cultures; experiment: Spinal cord culture model of ALS (THA toxicity, ChAT activity); type: cell-based, rats
Protocol: Organotypic cultures were prepared from lumbar spinal cord of 8 day old rats, as described by Rothstein et al., J. Neurochem., Vol. 65, No. 2 (1995), and Rothstein et al., Proc. Natl. Acad. Sci. USA, Vol. 90, pp. 6591-6595 (July 1993). In brief, lumbar spinal cords were removed and sliced into 300 […] sections, and five slices were placed on Millipore CM semipermeable 30-mm-diameter membrane inserts. The inserts were placed on 1 ml of culture medium in 35-mm-diameter culture wells. Culture medium consisted of 50% minimal essential medium and phosphate-free HEPES (25 mM), 25% heat-inactivated horse serum, and 25% Hanks' balanced salt solution (GIBCO) supplemented with D-glucose (25.6 mg/ml) and glutamine (2 mM), at a final pH of 7.2. Antibiotic and antifungal agents were not used. Cultures were incubated at 37° C. in 5% CO2 containing humidified environment (Forma Scientific). Culture medium, along with any added pharmacological agents, was changed twice weekly.
Drugs were incubated for an additional 13 to 20 days with the 100 μM THA. At the end of this period, cultures were collected assayed for ChAT activity as described below.
To determine choline acetyltransferase (ChAT) activity, the spinal cord tissues in each dish (five slices) were pooled and frozen (−75° C.) until assay. ChAT activity was measured radiometrically by described methods using [^3H] acetyl-CoA (Amersham; Fonnum, 1975). Protein content of tissue homogenate was determined by a Coomassi Protein Assay kit (Pierce, Rockford, Ill.).

[2] = system: stroke-induced rise in brain glutamate levels; experiment: In vivo assay on stroke-induced rise in brain glutamate levels (microdialysis); set-up: species or system Sprague Dawley rats; details: rat
From the text: Male Sprague Dawley rats (270-330 g, n=5-6 per group) were implanted with concentric microdialysis probes similar to previously described procedures (Britton et al., J. Neurochem., Vol. 67, pp. 324-329 (1996)). In brief, under halothane anaesthesia, probes (constructed in-house using Cuprophane capillary membrane; 10K mw cut off; 2 mm dialyzing length) were implanted into the frontal cortex (AP=+3.5; ML=3; DIV=3), caudate nucleus (AP=0; ML=3; DV=6.6), and parietal cortex (AP=−2; ML=5; DV=3) (coordinates in mm relative to bregma and dura, respectively), regions believed to represent core and penumbral areas of ischemia-induced injury. Glutamate levels in dialysate were determined using precolumn o-phthaldialdehyde derivatization, followed by HPLC with fluorometric detection.
Following a 60 minute stabilization period, dialysis samples were collected every 20 minutes. After collecting 3 baseline samples, the rats were anaesthetized with halothane and subjected to temporary ischemia using the filament method of MCAO (Britton et al., Life Sciences, Vol. 60, No. 20, pp. 1729-1740 (1997)). In brief, the right external carotid artery (ECA) was exposed and its branches coagulated. A 3-0 monofilament nylon suture was introduced into the internal carotid artery via an arteriotomy in the ECA and advanced until it lodged in the proximal region of the anterior cerebral artery, thus occluding the origin of the MCA. The endovascular suture was retracted to allow reperfusion 2 hours after occlusion.
Body temperature was maintained normothermic throughout stroke surgery and reperfusion procedures. […] Dialysis samples were collected every 20 minutes from unanesthetized rats.

[3] = system: Sprague-Dawley rats, 2 hour transient middle cerebral artery occlusion (MCAO); experiment: In vivo assay on brain injury following MCAO in Sprague-Dawley rats; details: 100 mg/kg IP then 20 mg/kg/hr IV for 4 hours
Protocol: In the control group (n=8), the rats received an IP injection of saline 30 minutes post-occlusion followed by IV saline infusion at a rate of 0.5 ml/hr. […] There was a 15 minute delay between IP and IV treatments for each rat. Twenty two hours following the reperfusion, the rats were euthanized and their brains were removed. Seven coronal sections (2 mm thick) were taken and stained with 1% solution of 2,3,5-triphenyltetraxolium chloride (TTC) for 20 minutes and then fixed in 10% formalin. The anterior and posterior surface of the most rostral brain section and the posterior surface of each of the other 6 sections were imaged. The quantification of infarct size of each brain was obtained using a computer aided-digital imaging analysis system (LOATS). The brain regions completely lacking TTC-staining were characterized as representative of infarcted tissue. The total infarct volume for each rat was calculated by numeric integration of the respective sequential brain areas.
Male Sprague-Dawley rats (260-320 g) were used. Prior to the experiment, the rats were individually housed and allowed free access to food and water. Each rat received two surgeries: jugular vein cannulation for IV infusion and MCAO. During surgeries, the rat was anesthetized with […] delivered in oxygen via an inhalation mask. The body temperature was monitored and regulated at normothermic level using a homeothermic heating system. First, a PE-50 polyethylene catheter was inserted into the right jugular vein. One hour later, the rat was reanesthetized for MCAO surgery. The MCAO was achieved using the endovascular suture method described by Long et al., Stroke, Vol. 20, pp. 84-91 (1989). Specifically, the right external carotid artery (ECA) was exposed, coagulated and transected. A 3-0 monofilament nylon suture with a blunted tip was introduced into the proximal stump of the ECA via an arteriotomy and advanced 20 mm from the carotid bifurcation until it lodged in the proximal region of the anterior cerebral artery, thereby occluding the origin of the MCA. The rats were allowed to wake up; 2 hours later, the rats were reanesthetized for reperfusion, during which the nylon suture was retracted to the stump of the ECA allowing blood recirculation to the MCA.

MPTP lesioned mice = experiment: In vivo assay on Parkinson's Disease (MPTP lesioned mice, TH immunostaining); set-up: species or system CD1 white mice
Protocol: MPTP lesioning of dopaminergic neurons in mice was used as an animal model of Parkinson's Disease, as described by Steiner, Proc. Natl. Acad. Sci., Vol. 94, pp. 2019-2024 (March 1997). In brief, four week old male CD1 white mice were dosed IP with 30 mg/kg of MPTP for 5 days. […] At 18 days following MPTP treatment, the mice were sacrificed and their brains were removed and sectioned. Immunostaining was performed on saggital and coronal brain sections using anti-tyrosine hydroxylase (TH) antibodies to quantitate survival and recovery of dopaminergic neurons.

With `O=C(O)CCC(CP(=O)(O)O)C(=O)O` (centres unmarked) [2-(phosphonomethyl)pentanedioic acid] the “ChAT Activity (% of Control)” value ([1]; Table XII, THA (100 μM) and 1 nM, 14 days) was −23.9 ± 18.6 % of Control, the “ChAT Activity (% of Control)” value ([1]; Table XII, THA (100 μM) and 10 nM, 14 days) was 23.1 ± 12.5 % of Control and the “ChAT Activity (% of Control)” value ([1]; Table XII, THA (100 μM) and 100 nM, 14 days) was 87.5 ± 21.7 % of Control. For the same compound, the “ChAT Activity (% of Control)” value ([1]; Table XII, THA (100 μM) and 1 μM, 14 days) was 187.7 ± 32.8 % of Control, the “ChAT Activity (% of Control)” value ([1]; Table XII, THA (100 μM) and 10 μM, 14 days) was 128.7 ± 17.2 % of Control and the “protection of the cultures from THA toxicity (in words)” value ([1]; co-incubation with THA, 100 nM-10 μM) was “significantly protected”. For the same compound, the “ChAT Activity (% of Control)” value ([1]; compound alone) was 108 ± 18.4 % of Control, the “ChAT Activity (% of Control)” value ([1]; compound and THA) was 121 + 18.8 % of Control and the “concurrent glutamate changes in the parietal cortex” value [2] was “completely prevented”. For the same compound, the “glutamate in the frontal cortex” value [2] was “no subsequent difference”, the “stroke-induced extracellular glutamate increases in the striatum” value [2] was “significantly attenuated” and the “mean total brain infarct volume” value ([3]; 20 minute pre-treatment) was 122±26 mm^3. For the same compound, the “mean total brain infarct volume” value ([3]; 30 minute post-treatment) was 208±40 mm^3, the “mean total brain infarct volume” value ([3]; 60 minute post-treatment) was 125±57 mm^3 and the “mean total brain infarct volume” value ([3]; 120 minute post-treatment) was 133±35 mm^3. For the same compound, the “Percent Strial TH Innervation Density (mean ± SEM)” value (MPTP lesioned mice; MPTP 30 mg/kg IP for 5 days plus compound 10 mg/kg SC) was 16.28 ± 0.98% and the “recovery of TH-stained dopaminergic neurons (in words)” value (MPTP lesioned mice; lesioned mice, 10 mg/kg, p<0.001) was “significant recovery”.
